According to patent US9750753B1, “Method of treating diseases associated with LRRK2 mutation using hexachlorophene” (University of South Florida, priority 2014, dated 2017):
Entries after “also recorded” stand apart in the source; their conditions may differ.

Legend:
[1] = test system: rats; conditions: cited from earlier work; for protection from toxicity induced by B10: pre-treatment prior to administration of B10, rats
[2] = target: T1, wild-type human LRRK2 protein (Homo sapiens, UniProt Q5S007); assay: Western blot of overexpressed wild-type LRRK2 in transfected HeLa cells; type: cell-based
T1 construct: expressed in transfected cells; host or cells: HeLa
T1 sequence (Q5S007 whole entry): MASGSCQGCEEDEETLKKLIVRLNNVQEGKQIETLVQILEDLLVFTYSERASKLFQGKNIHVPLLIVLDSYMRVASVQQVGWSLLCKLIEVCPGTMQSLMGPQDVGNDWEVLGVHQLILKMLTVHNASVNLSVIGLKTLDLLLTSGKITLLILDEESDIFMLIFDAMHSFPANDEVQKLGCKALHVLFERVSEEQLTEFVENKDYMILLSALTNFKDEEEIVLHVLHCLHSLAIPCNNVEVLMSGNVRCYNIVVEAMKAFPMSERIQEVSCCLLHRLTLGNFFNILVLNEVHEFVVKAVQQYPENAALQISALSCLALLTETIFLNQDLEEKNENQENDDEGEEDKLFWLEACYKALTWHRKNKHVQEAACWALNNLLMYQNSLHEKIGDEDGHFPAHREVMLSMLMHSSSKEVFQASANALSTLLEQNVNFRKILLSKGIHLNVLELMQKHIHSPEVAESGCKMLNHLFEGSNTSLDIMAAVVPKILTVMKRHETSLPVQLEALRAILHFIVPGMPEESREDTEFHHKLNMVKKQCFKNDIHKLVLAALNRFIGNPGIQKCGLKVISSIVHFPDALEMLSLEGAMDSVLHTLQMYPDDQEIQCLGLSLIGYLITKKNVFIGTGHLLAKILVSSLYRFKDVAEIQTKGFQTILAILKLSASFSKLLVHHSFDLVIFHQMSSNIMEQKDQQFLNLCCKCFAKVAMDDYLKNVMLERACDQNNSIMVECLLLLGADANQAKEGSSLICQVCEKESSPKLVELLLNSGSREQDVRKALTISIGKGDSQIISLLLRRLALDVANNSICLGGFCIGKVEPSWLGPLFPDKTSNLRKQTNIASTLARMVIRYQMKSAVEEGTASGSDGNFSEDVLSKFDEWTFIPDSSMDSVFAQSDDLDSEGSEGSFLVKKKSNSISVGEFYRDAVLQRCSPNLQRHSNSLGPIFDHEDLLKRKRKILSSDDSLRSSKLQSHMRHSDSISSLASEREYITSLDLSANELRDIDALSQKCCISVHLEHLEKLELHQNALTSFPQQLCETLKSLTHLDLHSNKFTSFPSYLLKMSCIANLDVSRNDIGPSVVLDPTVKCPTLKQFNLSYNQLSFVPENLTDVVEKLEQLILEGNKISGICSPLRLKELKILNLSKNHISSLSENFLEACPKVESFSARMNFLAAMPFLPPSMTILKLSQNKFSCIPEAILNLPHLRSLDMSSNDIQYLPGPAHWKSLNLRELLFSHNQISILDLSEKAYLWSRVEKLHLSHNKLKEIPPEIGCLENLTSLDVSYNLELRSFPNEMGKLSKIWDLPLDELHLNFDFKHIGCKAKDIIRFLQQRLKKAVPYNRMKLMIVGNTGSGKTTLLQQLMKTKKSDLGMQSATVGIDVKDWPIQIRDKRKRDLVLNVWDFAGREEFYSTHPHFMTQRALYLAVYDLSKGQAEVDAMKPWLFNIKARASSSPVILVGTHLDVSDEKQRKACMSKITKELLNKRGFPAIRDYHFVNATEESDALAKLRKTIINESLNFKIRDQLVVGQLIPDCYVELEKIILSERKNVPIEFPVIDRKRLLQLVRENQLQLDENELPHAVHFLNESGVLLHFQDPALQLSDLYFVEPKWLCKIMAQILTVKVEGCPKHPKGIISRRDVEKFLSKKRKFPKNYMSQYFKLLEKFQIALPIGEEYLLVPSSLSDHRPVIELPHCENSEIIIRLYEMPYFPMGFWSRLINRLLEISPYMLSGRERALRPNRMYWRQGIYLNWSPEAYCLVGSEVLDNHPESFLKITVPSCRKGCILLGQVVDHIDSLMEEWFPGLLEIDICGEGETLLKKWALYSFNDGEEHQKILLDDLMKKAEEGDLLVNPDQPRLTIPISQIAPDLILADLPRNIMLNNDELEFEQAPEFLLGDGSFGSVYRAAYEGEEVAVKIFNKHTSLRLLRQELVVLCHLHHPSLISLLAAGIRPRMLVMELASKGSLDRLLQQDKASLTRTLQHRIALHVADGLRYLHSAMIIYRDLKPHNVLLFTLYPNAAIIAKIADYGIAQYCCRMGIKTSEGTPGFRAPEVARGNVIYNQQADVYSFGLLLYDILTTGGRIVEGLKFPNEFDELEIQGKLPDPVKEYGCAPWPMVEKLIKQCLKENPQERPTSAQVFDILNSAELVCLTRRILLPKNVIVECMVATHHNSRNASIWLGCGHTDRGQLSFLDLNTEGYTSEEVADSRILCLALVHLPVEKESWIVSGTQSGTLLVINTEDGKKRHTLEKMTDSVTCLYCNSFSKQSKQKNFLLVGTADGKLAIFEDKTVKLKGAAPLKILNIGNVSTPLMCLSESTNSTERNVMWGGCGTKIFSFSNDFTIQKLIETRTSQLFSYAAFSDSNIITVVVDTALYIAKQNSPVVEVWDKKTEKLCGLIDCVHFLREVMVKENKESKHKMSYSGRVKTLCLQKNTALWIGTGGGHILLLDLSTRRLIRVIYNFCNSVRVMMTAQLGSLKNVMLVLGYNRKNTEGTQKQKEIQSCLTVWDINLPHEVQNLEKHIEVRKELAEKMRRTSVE
Method: (§1) HeLa cells overexpressing wild-type or mutant human LRRK2 protein and N9 cells expressing endogenous LRRK2 protein were treated with hexachlorophene (labeled as B10 in FIGS. 1 and 2) for 24 hours.
(§2) HeLa cells were grown in DMEM with 10% FBS and 1% penicillin and streptomycin. Cells were transfected with constructs for LRRK2 and the G2019S mutant using Lipofectamine 2000. HeLa cells were used due to the ease of transfection with LRRK2 and its mutants.
(§3) Samples were harvested by using MPER mammalian extraction buffer (Pierce, Thermo Scientific) containing protease and phosphatase inhibitors. After protein estimation using a BCA kit (Pierce, Thermo Scientific), equal amounts of protein from each sample was subjected to gel electrophoresis and western blotting. Phospho (p-) and Total (T-) LRRK2 (abcam) and GAPDH (Meridian Life Sciences) antibodies were used to detect phospho and total LRRK2 and GAPDH, respectively. Analysis of changes in the LRRK2 level was performed using Scion Image software.

[3] = target: T2, mutant (G2019S) LRRK2 (Homo sapiens, UniProt Q5S007, G2019S); assay: Western blot of overexpressed mutant (G2019S) LRRK2 in transfected HeLa cells; type: cell-based; conditions: 1 μM, 24 hours, vs vehicle DMSO control
T2 construct: expressed in transfected cells; host or cells: HeLa
T2 sequence (Q5S007 whole entry G2019S): as the sequence (Q5S007 whole entry) above, with G2019S counted along it
Method: as §1, §2, §3

[4] = test system: synuclein; assay: Synuclein level in HeLa cells (selectivity control); type: cell-based; conditions: 1 μM
[5] = target: T3, endogenous LRRK2 protein (Mus musculus, UniProt Q5S006); assay: Western blot of endogenous LRRK2 in N9 cells; type: cell-based; conditions: 1 μM, 24 hours
T3 construct: N9 cells were used because they express high levels of endogenous LRRK2; endogenous in cells; host or cells: N9
T3 sequence (Q5S006 whole entry): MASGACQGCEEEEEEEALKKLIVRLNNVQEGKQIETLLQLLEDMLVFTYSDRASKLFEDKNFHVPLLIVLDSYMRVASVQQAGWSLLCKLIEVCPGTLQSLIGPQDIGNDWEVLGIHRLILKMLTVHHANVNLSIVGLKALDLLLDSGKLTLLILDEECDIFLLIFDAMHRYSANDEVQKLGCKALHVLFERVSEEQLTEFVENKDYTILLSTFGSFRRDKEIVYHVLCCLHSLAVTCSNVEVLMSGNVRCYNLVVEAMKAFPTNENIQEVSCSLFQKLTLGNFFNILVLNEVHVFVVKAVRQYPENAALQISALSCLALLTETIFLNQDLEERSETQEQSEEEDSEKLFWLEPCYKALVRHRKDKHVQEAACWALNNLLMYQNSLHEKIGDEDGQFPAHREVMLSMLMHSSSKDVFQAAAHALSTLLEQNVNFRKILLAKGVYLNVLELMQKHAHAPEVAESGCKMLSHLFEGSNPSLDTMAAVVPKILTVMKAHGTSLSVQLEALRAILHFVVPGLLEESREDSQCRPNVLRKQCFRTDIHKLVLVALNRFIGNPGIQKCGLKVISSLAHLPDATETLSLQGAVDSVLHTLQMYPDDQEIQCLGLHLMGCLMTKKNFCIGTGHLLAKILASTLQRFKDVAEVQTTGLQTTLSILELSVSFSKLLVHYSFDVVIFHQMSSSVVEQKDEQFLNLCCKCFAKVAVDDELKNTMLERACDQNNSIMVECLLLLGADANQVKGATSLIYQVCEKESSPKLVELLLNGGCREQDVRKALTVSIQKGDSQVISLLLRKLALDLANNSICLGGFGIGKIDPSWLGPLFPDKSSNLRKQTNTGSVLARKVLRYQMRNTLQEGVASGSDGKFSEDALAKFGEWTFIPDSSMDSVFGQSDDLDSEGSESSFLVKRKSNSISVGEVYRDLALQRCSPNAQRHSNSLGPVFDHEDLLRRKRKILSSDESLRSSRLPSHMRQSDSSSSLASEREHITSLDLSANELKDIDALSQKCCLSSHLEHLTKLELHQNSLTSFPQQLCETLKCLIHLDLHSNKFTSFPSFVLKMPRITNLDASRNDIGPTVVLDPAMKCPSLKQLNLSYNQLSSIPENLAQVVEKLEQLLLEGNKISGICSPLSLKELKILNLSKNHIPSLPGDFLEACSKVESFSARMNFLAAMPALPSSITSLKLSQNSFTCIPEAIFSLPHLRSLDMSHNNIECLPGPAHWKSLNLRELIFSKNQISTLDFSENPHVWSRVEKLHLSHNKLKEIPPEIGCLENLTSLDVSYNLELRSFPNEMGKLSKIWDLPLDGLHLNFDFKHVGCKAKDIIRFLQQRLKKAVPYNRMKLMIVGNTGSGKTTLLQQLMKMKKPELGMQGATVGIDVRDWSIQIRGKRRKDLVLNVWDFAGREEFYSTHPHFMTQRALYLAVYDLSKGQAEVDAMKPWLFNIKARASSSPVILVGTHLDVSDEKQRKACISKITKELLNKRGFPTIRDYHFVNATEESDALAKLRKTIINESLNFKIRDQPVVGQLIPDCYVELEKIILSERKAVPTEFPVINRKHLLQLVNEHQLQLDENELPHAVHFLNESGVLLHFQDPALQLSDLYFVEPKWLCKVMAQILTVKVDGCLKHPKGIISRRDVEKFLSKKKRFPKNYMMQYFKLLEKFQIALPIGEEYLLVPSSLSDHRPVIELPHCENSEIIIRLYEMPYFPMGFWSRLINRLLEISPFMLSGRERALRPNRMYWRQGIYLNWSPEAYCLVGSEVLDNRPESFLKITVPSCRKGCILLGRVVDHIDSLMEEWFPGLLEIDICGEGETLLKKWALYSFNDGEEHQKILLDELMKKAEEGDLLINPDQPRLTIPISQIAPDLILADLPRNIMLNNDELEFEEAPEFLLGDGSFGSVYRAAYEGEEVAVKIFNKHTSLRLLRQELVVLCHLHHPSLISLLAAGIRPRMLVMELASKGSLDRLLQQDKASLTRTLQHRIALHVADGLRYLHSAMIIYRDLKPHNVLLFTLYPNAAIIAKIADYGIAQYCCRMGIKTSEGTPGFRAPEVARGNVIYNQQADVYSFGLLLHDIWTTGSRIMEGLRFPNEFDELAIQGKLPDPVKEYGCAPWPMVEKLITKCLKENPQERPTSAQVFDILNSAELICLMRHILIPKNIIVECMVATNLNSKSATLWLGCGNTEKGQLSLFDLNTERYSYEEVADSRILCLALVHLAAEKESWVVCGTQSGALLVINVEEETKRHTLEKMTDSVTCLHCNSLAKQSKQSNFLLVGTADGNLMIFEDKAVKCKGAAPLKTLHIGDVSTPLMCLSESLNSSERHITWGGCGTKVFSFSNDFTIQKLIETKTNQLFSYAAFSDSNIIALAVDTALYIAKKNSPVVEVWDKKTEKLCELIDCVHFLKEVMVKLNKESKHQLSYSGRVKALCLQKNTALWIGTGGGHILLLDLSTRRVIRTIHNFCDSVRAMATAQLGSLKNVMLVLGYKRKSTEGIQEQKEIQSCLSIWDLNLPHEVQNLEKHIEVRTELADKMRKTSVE
Method: as §1
N9 cells were grown in DMEM supplemented with 10% FBS, 1% penicillin and streptomycin, and 2% L-glutamine. N9 cells were used because they express high levels of endogenous LRRK2. They are very difficult to transfect and were only used to study the effect of hexachlorophene on wild-type LRRK2.
as §3

[6] = test system: HeLa cells
[7] = test system: N9 cells
[8] = test system: rats; conditions: oral; cited from earlier work
[9] = dose of about 10 mg/kg, transgenic TDP43 mouse model; cited from earlier work
[10] = test system: Wnt-β-catenin signaling pathway; conditions: B lymphoma cells; cited from earlier work
[11] = target: amyloid beta (Aβ) (Homo sapiens, UniProt P05067); conditions: cited from earlier work
Sequence of amyloid beta (Aβ) (P05067 672-713 limits assumed): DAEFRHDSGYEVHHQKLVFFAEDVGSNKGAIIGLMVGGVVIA

[12] = test system: primary neuronal cultures; conditions: cited from earlier work
[13] = test system: LRRK2; conditions: cited from earlier work

## CCCC(C(=O)OCCN(CC)CC)(c1ccccc1)c1ccccc1.Cl [SKF-525A, 2-diethylaminoethyl-2,2-diphenylvalerate-Hcl]
[1]; oral vs ip administration of the pre-treatment agent
  protective effect by route of administration: only occurred upon oral administration
[1]
  protection from toxicity induced by B10: lessened toxicity

## Oc1c(Cl)cc(Cl)c(Cl)c1Cc1c(O)c(Cl)cc(Cl)c1Cl [hexachlorophene, Hexachlorophene]
[2]; HeLa cells, 1 μM, 24 hours, vs vehicle DMSO control
  overexpressed wild-type LRRK2 level: selectively reduces; also recorded: decreased
[2]; cell line not stated (HeLa and N9 cells used)
  period of maximal effect on LRRK2 levels: 24 h
[3]
  overexpressed mutant (G2019S) LRRK2 level: selectively reduces; also recorded: decreased
[4]
  effect on synuclein: does not affect
[5]
  endogenous pLRRK2 level: reduces
  expression of endogenous LRRK2: reduces
[6]
  cell death (LDH release): minimal amounts of cell death
[7]
  cell death (LDH release): minimal amounts of cell death
[8]
  LD50: 66 mg/kg
[9]
  brain permeability: 50%
[10]
  effect on Wnt-β-catenin signaling pathway: inhibit
[11]
  effect on Aβ fibril formation: inhibit
[12]
  protection from Aβ-induced toxicity: protect

## CCOc1ccc2c(c1)C(C)=CC(C)(C)N2 [ethoxyquin]
[1]
  protection from toxicity induced by B10: protects

## CC1=C(CO)C(=O)O[C@@H]([C@@H](C)[C@H]2CC[C@H]3[C@@H]4C[C@H]5O[C@]56[C@@H](O)C=CC(=O)[C@]6(C)[C@H]4CC[C@]23C)C1 [withaferin A]
[13]; WA in the presence of celastrol, additive manner
  clearance of LRRK2: enhanced
[13]; compound alone, dose and time dependent manner
  LRRK2 levels in cells: reduced

## C[N+](C)(C)C[C@H](O)CC(=O)[O-] [L-carnitine]
[1]
  protection from toxicity induced by B10: protected
